The test system of data set [1] is MCF-7 human breast cancer cells. Put plainly: Crystal violet cell growth assay. Type of data set: cell-based. The note with it: MCF7, MCF-7 cells, 72 hours, read-out: Cr. Violet (IC50). As to the method: Crystal Violet Cell Growth Assay
The crystal violet assay measures cell growth but not cytotoxicity. This assay employs crystal violet staining of fixed cells in 96-well plates with subsequent solubilization and measurement of OD490 on a spectrophotometer. The OD490 corresponds to cell growth per unit time measured. Cells are treated with the compounds of interest or vehicle controls and IC50 for each compound is computed.
To measure the cytotoxicity of specific compounds against cancer cells, 5×10^4 MCF-7 human breast cancer cells, obtained from the American Type Culture Collection are plated per well in 24 well plates in DMEM medium with 10% fetal bovine serum, penicillin, and streptomycin. Following overnight culture at 37° C. and 5% CO2, the compounds to be tested, dissolved in DMSO, are added to the wells in 1 μl volume at the following concentrations: 50, 40, 30, 20, and 10 μg/ml in triplicate. Additional concentrations are tested if required. 1 μl of DMSO is added to triplicate wells as the vehicle control. C75 is run at 10, and 5 μg/ml in triplicate as positive controls.
After 72 hours of incubation, cells are stained with 0.5 ml of Crystal Violet stain (0.5% in 25% methanol) in each well. After 10 minutes, wells are rinsed, air dried, and then solubilized with 0.5 ml 10% sodium dodecylsulfate with shaking for 2 hours. Following transfer of 100 μl from each well to a 96-well plate, plates are read at OD490 on a Molecular Devices SpectraMax Plus Spectrophotometer Average OD490 values are computed using SOFTmax Pro Software (Molecular Devices) and IC50 values are determined by linear regression analysis using Prism version 3.02 (Graph Pad Software, San Diego).

Data set [2] can be described thus: Weight loss screen in Balb/C mice. Type of data set: in vivo. As to the method: Weight Loss Screen for Novel FAS Inhibitors
Balb/C mice (Jackson Labs) are utilized for the initial weight loss screening. Animals are housed in temperature and 12 hour day/night cycle rooms and fed mouse chow and water ad lib. Three mice are utilized for each compound tested with vehicle controls in triplicate per experiment. For the experiments, mice are housed separately for each compound tested three mice to a cage. Compounds are diluted in DMSO at 10 mg/ml when given at a dose of 30 mg/kg, and 30 mg/ml when given at a dose of 60 mg/kg, and mice are injected intraperitoneally with 60 mg/kg in approximately 100 μl of DMSO or with vehicle alone. Mice are observed and weighed daily; average weights and standard errors are computed with Excel (Microsoft). The experiment continues until treated animals reach their pretreatment weights. Select compounds are tested in animals housed in metabolic cages.
Dosing of animals are identical to the screening experiments with three animals to a single metabolic cage. Animal weights, water and food consumption, and urine and feces production are measured daily. Three lean Balb/C mice (Harlan) maintained on mouse chow, are treated with compounds at doses indicated on day 0 or with vehicle (DMSO) control of equal volume. Compound 6 was solubilized in 40 μl DMSO while Compound 8 was solubilized in 60 μl DMSO. All were injected intraperitoneally. Weights were measured on days indicated. Error bars represent standard error of the mean.

In data set [3] the target is T1, Carnitine Palmitoyltransferase-1 (CPT-1) (Homo sapiens, UniProt P50416).
T1 construct: This assay uses permeabilized cells to measure the transfer of [methyl-^14C]L-carnitine; endogenous in cells; host or cells: MCF-7 cells, digitonin-permeabilized
T1 sequence (P50416 1-773): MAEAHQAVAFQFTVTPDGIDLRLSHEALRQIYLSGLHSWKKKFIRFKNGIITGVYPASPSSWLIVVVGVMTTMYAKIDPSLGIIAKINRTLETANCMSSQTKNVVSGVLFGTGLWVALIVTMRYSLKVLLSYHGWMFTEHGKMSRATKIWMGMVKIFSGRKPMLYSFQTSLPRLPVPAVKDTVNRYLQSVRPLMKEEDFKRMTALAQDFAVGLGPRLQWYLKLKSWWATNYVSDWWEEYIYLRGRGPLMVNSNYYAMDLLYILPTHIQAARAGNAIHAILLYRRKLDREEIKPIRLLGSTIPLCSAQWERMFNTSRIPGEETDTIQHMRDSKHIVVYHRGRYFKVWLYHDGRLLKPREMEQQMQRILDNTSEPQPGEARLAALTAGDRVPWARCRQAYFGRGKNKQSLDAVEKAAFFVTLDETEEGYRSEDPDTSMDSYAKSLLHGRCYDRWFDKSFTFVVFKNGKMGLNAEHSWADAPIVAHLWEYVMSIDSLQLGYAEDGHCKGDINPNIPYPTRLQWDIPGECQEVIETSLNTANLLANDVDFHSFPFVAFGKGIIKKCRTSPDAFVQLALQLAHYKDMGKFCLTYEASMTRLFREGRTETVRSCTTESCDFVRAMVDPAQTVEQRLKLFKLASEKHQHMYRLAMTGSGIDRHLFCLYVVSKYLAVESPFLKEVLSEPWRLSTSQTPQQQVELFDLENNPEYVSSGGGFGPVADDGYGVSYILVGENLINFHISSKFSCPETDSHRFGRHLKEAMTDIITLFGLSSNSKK
Put plainly: Carnitine palmitoyltransferase-1 (CPT-1) assay in permeabilized MCF-7 cells. In kind it is cell-based. The note with it: MCF at 10 ug.ml. As to the method: Carnitine Palmitoyltransferase-1 (CPT-1) Assay
CPT-1 catalyzes the ATP dependent transfer of long-chain fatty acids from acyl-CoA to acyl-carnitine that is inhibited by malonyl-CoA. As CPT-1 requires the mitochondrial membrane for activity, enzyme activity is measured in permeabilized cells or mitochondria This assay uses permeabilized cells to measure the transfer of [methyl-^14C]L-carnitine to the organically soluble acyl-carnitine deriviative.
MCF-7 cells are plated in DMEM with 10% fetal bovine serum at 10^6 cells in 24-well plates in triplicate for controls, drugs, and malonyl-CoA. Two hours before commencing the assay, drugs are added at the indicated concentrations made from stock solutions at 10 mg/ml in DMSO, vehicle controls consist of DMSO without drug. Since malonyl-CoA cannot enter intact cells, it is only added in the assay buffer to cells that have not been preincubated with drugs. Following overnight incubation at 37° C., the medium is removed and replaced with 700 μl of assay buffer consisting of: 50 mM imidazole, 70 mM KCl, 80 mM sucrose, 1 mM EGTA, 2 mM MgCl2, 1 mM DTT, 1 mM KCN, 1 mM ATP, 0.1% fatty acid free bovine serum albumin, 70 μM palmitoyl-CoA, 0.25 μCi [methyl-^14C]L-carnitine, 40 μg digitonin with drug, DMSO vehicle control, or 20 μM malonyl-CoA. […] The butanol phase is counted by liquid scintillation and represents the acylcarnitine derivative.

The mark [4] stands for this setting: 30 mg/kg i.p., day 1, three Balb/C mice per compound.

Molecules are shown by their SMILES. Values after ≈ are worked out from the molar mass of the structure shown. A value given as a limit tells only on which side of the number the result lay.

Broadly, the IC50 is the concentration at which inhibition is half-maximal. For the compound `C=CCNC(=O)[C@H]1[C@H](CCCCCCCC)OC(=O)[C@H]1C` (racemic), in data set [1], the 50% inhibitory concentration (IC50) was 43.9 ± 4.8 µg/mL (≈ 149 µM). Still for that read-out and setting: with `CCCCCCCCC1OC(=O)[C@@H](C)[C@H]1C(=O)O` (some centres unmarked) the figure was > 50 µg/mL; with `CCCCCCCCC1OC(=O)[C@H](C)[C@H]1C(=O)O` (some centres unmarked), 49 µg/mL (≈ 191 µM). Regarding `C=C1C(=O)O[C@@H](CCCCCCCC)[C@@H]1C(=O)NCC(=O)O` (racemic), the IC50 in data set [1] is > 50 µg/mL. Moreover, the “Deaths in weight loss screen” value in data set [2] (30 mg/kg i.p., day 6, three Balb/C mice per compound) stood at 1 death. For the compound `C=C1C(=O)O[C@@H](CCCCCCCC)[C@@H]1C(=O)NCCO` (racemic), the IC50 in data set [1] was determined as 2.2 ± 1 µg/mL (≈ 7.4 µM). Turning to `C=CCNC(=O)[C@@H]1C(=C)C(=O)O[C@H]1CCCCCC` (racemic), in data set [1], the concentration for half-maximal inhibition (IC50) was 0.85 ± 0.08 µg/mL (≈ 3.2 µM). Further, the “Deaths in weight loss screen” value in data set [2] (setting [4]) is 1 of 3 dead. In the same order, the values of `C=C1C(=O)O[C@@H](CCCCCCCC)[C@@H]1C(=O)NCC(=O)OC` (racemic) are 1.3 ± 0.09 µg/mL (≈ 4 µM) and 3 of 3 dead. Take `C=CCNC(=O)C1=C(C)C(=O)O[C@H]1CCCCCCCC`: in data set [1], the IC50 was found to be 23.7 µg/mL (≈ 80.8 µM).

Take `C=CCNC(=O)[C@H]1[C@H](CCCCCCCC)OC(=O)[C@@H]1C` (racemic): the IC50 in data set [1] stood at 30 µg/mL (≈ 102 µM). `C=CCNC(=O)[C@@H]1C(=C)C(=O)O[C@H]1CCCCCCCC` (racemic): the IC50 in data set [1] was found to be 0.9 ± 0.5 µg/mL (≈ 3.07 µM). Also, in data set [3], the “CPT I Stim” value is given as 400% of control/MCF. The “Deaths in weight loss screen” value in data set [2] (60 mg/kg i.p., day 3, three Balb/C mice per compound) was 3 of 3 dead. As to `C=CCNC(=O)[C@@H]1C(=C)C(=O)O[C@H]1CCCC` (racemic), in data set [1], the half-inhibitory concentration (IC50) is 2.2 ± 0.3 µg/mL (≈ 9.27 µM). In addition, in data set [2] (30 mg/kg i.p., day 2, three Balb/C mice per compound), the “Deaths in weight loss screen” value is 3 of 3 dead.

(Values after patent US20060241177A1, “Novel compounds, pharmaceutical compositions containing same, and methods of use for same” (priority 2002, published 2006).)
